Experimental data published in patent publication US12115209B2, “ROMO1-derived antimicrobial peptides including lysine substitution and variants thereof” (KOREA UNIVERSITY RESEARCH AND BUSINESS FOUNDATION, priority 2019, dated 2024).
No end group written: not given here.

Assays:
mouse red blood cells = format: cell-based
Description: Red blood cells were diluted with PBS, centrifuged 3 times at 900 g for 10 minutes, and washed. 100 μl of the diluted red blood cell solution (10% v/v PBS) was dispensed into each well of a 96-well microplate, and KU-5878, KU-5878-K4, KU-5878-K4-D, melittin, magainin 2 or daptomycin was added to each well which was then filled with PBS to 200 μl, followed by reaction by incubation at 37° C. for 1 hour. Then, the supernatant of the reaction solution was separated, and the absorbance at a wavelength of 550 nm was measured using a spectrophotometer. As control, PBS and 0.1% Triton X-100 (Triton X-100) solution were used.
Based on the results of measurement of the absorbance, the degree of red blood cell destruction was calculated according to Equation 1 below, and the results of the calculation are shown in FIG. 6. % The intact RBC=100(%)−[(absorbance of peptide-treated red blood cell solution−absorbance of PBS-treated red blood cell solution)/(absorbance of Triton X-100-treated red blood cell solution−absorbance of PBS-treated red blood cell solution)×100(%)] [Equation 1]

[1] = system: Staphylococcus aureus, Pseudomonas aeruginosa, Klebsiella pneumoniae and Acinetobacter baumannii; assay: Survival rate of mice injected with gram-positive or gram-negative bacteria; format: in vivo, mice (C57BL/6); conditions: mice injected with gram-positive or gram-negative bacteria (FIG. 3)
Excerpt: Following Example 2-2, in order to evaluate the antibacterial activity of the KU-5878 peptide in vivo, Staphylococcus aureus as gram-positive bacteria, Pseudomonas aeruginosa, Klebsiella pneumoniae and Acinetobacter baumannii as gram-negative bacteria, and multidrug-resistant Pseudomonas aeruginosa, methicillin-resistant Staphylococcus aureus, multidrug-resistant Klebsiella pneumoniae and multidrug-resistant Acinetobacter baumannii as multidrug-resistant bacteria were selected, and the following experiment was performed.
The experimental method is as described in Example 2-2 above. For a positive group, each type of the bacteria was injected into mice, and after 24 hours, 30 mg/kg of imipenem, a carbapenem-based antibiotic, was injected intraperitoneally (IP), and then the same amount of imipenem was administered intraperitoneally a total of 4 times at 12-hour intervals. The survival rates of each control group and the experimental group were measured at 24-hour intervals.

[2] = system: Klebsiella pneumoniae (ATCC 13883); format: cell-based; conditions: ATCC 13883, 4 h
Description: (§1) Specifically, each type of bacteria was cultured in 3% (w/v) TSB (tryptic soy broth) liquid medium at 37° C. and 200 rpm for 4 hours, and then further cultured under the same conditions for 3 hours to a concentration of 5×10^6 CFU/ml. Strain solutions were prepared by diluting each of the further cultured strains with SP buffer to a final concentration of 2×10^5 CFU/ml.
(§2) Then, the KU-5878 peptide at varying concentrations (0 μg/ml to 300 μg/ml) was dispensed into each well of a 96-well microplate, and 100 μl (1×10^5 CFU/ml) of each of the prepared strain solutions was added thereto, mixed therewith, and allowed to react with the peptide in an incubator at 37° C. for 1 hour.
(§3) In addition, 10 μl of each reaction solution of the peptide and the strain was plated on the TS agar plate at a constant size, and incubated in an incubator at 37° C. for 18 hours, and then colony formation on the plate was checked. The minimum bactericidal concentration was defined as the minimum concentration of the peptide at which no colony was formed, and the experimental results are shown in Table 2 below.

[3] = system: Enterococcus faecium (ATCC 19434); format: cell-based; conditions: ATCC 19434, 4 h
Description: as §1, §2, §3

[4] = system: Acinetobacter baumannii (ATCC 19606); format: cell-based; conditions: ATCC 19606, 4 h
Description: as §1, §2, §3

[5] = system: Enterococcus faecalis (ATCC 19433); format: cell-based; conditions: ATCC 19433, 4 h
Description: as §1, §2, §3

[6] = system: Escherichia coli (ATCC 25922); format: cell-based; conditions: ATCC 25922, 4 h
Description: as §1, §2, §3

[7] = Toxicity in vivo (survival and weight after intravenous injection); set-up: species or system mouse (C57BL/6); conditions: 100 mg/kg intravenous
Description: At this time, the maximum volume of the injection dose was 150 μl.

## KTMMQSGGTFGTFMAIGMGIR [KU-5878]
Mouse red blood cells
  hemolysis of red blood cells: little hemolysis even at a high concentration
[1]
  survival rate: 60%
[2]
  MBC value: 100 µg/mL
[3]
  MBC value: 85 µg/mL
[4]
  MBC value: 100 µg/mL
[5]
  MBC value: 85 µg/mL
[6]
  MBC value: 85 µg/mL
[7]; 24-hour intervals for 12 days
  effect on the weight of the mice: no effect on the weight
[7]; observed 12 days
  survival of mice after injection: all survived
